# Test results: PubChem BioAssay (NCI)
#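 Assay format: 96-well plates, 48-hour exposure. TGI: total growth inhibition.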
# How the values were obtained:
# Assay in all cases: DTP human tumour cell line panel, 48 h
# [1] = tested on: EKVX NSCLC
# [2] = tested on: SF-268 CNS
# [3] = tested on: UACC-257 melanoma
# [4] = tested on: MDA-MB-231 breast
# [5] = tested on: UO-31 renal
# [6] = tested on: RPMI-8226 leukemia
# [7] = tested on: ACHN renal
# [8] = tested on: OVCAR-8 ovarian
# [9] = tested on: NCI-H23 lung
# [10] = tested on: HCC-2998 colon
# [11] = tested on: TK-10 renal
# [12] = tested on: MOLT-4 leukemia
# [13] = tested on: NCI-H226 lung
# [14] = tested on: IGROV1 ovarian
# [15] = tested on: MDA-MB-435
# [16] = tested on: SK-OV-3 ovarian
# [17] = tested on: UACC-62 melanoma
# [18] = tested on: HT29 colon
# [19] = tested on: DU-145 prostate
# [20] = tested on: U251 CNS
# [21] = tested on: MCF7 breast
# [22] = tested on: CAKI-1 renal
# [23] = tested on: OVCAR-3 ovarian
# [24] = tested on: SK-MEL-5 melanoma
# [25] = tested on: MALME-3M melanoma
# [26] = tested on: HCT-15 colon
# [27] = tested on: PC-3 prostate
# [28] = tested on: COLO 205 colon
# [29] = tested on: NCI/ADR-RES ovarian
# [30] = tested on: SK-MEL-2 melanoma
# [31] = tested on: K-562 leukemia
# [32] = tested on: OVCAR-5 ovarian
# [33] = tested on: CCRF-CEM leukemia
# [34] = tested on: HCT-116 colon
# [35] = tested on: LOX IMVI melanoma
# [36] = tested on: SW-620 colon
# [37] = tested on: SNB-19 CNS
# [38] = tested on: A549 NSCLC
# [39] = tested on: T-47D breast
# [40] = tested on: 786-0 renal
# [41] = tested on: SK-MEL-28 melanoma
# [42] = tested on: KM12 colon
# [43] = tested on: M14 melanoma
# [44] = tested on: BT-549 breast
# [45] = tested on: HOP-62 NSCLC
# [46] = tested on: MDA-N
# [47] = tested on: OVCAR-4 ovarian
# [48] = tested on: RXF 393 renal
# [49] = tested on: HL-60(TB) leukemia
# [50] = tested on: SN12C renal
# [51] = tested on: SNB-75 CNS
# [52] = tested on: SR leukemia
# [53] = tested on: HS 578T breast
# [54] = tested on: NCI-H460 lung
# [55] = tested on: SF-295 CNS
smiles,measurement,setting,value
Oc1ccc(-c2nc(-c3ccc(F)cc3)c(-c3ccc4ccccc4n3)[nH]2)cc1,TGI,[1],40.7 µM
same,TGI,[2],43.8 µM
same,TGI,[3],26.3 µM
same,TGI,[4],41.4 µM
same,TGI,[5],26.1 µM
same,TGI,[6],> 100 µM
same,TGI,[7],24.9 µM
same,TGI,[8],32 µM
same,TGI,[9],25.4 µM
same,TGI,[10],15.3 µM
same,TGI,[11],26 µM
same,TGI,[12],25.2 µM
same,TGI,[13],28.6 µM
same,TGI,[14],26.5 µM
same,TGI,[15],29.6 µM
same,TGI,[16],30.7 µM
same,TGI,[17],23.6 µM
same,TGI,[18],20.2 µM
same,TGI,[19],34.8 µM
same,TGI,[20],24.4 µM
same,TGI,[21],18.7 µM
same,TGI,[22],31.3 µM
same,TGI,[23],20.3 µM
same,TGI,[24],17.7 µM
same,TGI,[25],28.3 µM
same,TGI,[26],23.6 µM
same,TGI,[27],22.6 µM
same,TGI,[28],29.7 µM
same,TGI,[29],20.5 µM
same,TGI,[30],32.9 µM
same,TGI,[31],> 100 µM
same,TGI,[32],39.8 µM
same,TGI,[33],> 100 µM
same,TGI,[34],32.4 µM
same,TGI,[35],27.9 µM
same,TGI,[36],29.1 µM
same,TGI,[37],37.1 µM
same,TGI,[38],27 µM
same,TGI,[39],25.1 µM
same,TGI,[40],66 µM
same,TGI,[41],37.7 µM
same,TGI,[42],19.1 µM
same,TGI,[43],22.9 µM
same,TGI,[44],36.6 µM
same,TGI,[45],33.4 µM
same,TGI,[46],27.9 µM
same,TGI,[47],26.3 µM
same,TGI,[48],31.9 µM
same,TGI,[49],> 100 µM
same,TGI,[50],32.1 µM
same,TGI,[51],41.6 µM
same,TGI,[52],> 100 µM
same,TGI,[53],28.6 µM
same,TGI,[54],18.4 µM
same,TGI,[55],24 µM
